Assay results published in publication PMC8878317, “Chemogenomics identifies acetyl-coenzyme A synthetase as a target for malaria treatment and prevention” (Cell Chemical Biology, 2022).

What was measured:
Format in all cases: cell-based
[1] = system: P. falciparum Dd2:A597V (CRISPR edited PfAcAS); test: Blood-stage dose-response assay, CRISPR-edited Dd2:A597V line; settings: Plasmodium falciparum, mean ± SD, n bioreplicates
Experimental: (§1) For in vitro–selected lines, drug susceptibility was measured by SYBR Green I–based assay ([Johnson et al., 2007]; [Smilkstein et al., 2004]). Ring-stage parasites were cultured for 72 hr at 1% hematocrit and 1% starting parasitemia in 384-well black clear-bottom plates containing test compounds plated in triplicate in 12-point serial dilutions. Lysis buffer (0.16% w/v saponin, 1.6% Triton X-100, 5 mM EDTA, and 20 mM Tris-HCl, pH 7.4) with SYBR Green I fluorescent dye (Invitrogen) was added, and fluorescence readings were taken (excitation at 494 nm, emission at 530 nm). Alternatively, Dd2-B2 ring-stage cultures at 0.3% parasitemia and 1% hematocrit were exposed for 72 hr to a range of ten drug concentrations that were 2-fold serially diluted in duplicates along with drug-free controls. Parasite survival was assessed by flow cytometry on an Accuri C6 (BD Biosciences) using SYBR Green and MitoTracker Deep Red FM (Life Technologies) as nucleic acid stain and vital dyes respectively. EC50 values were calculated using a nonlinear regression curve fit in Prism Software version 8 (GraphPad).
(§2) Mutant PfAcAS-A597V and PfAcAS-T648M parasites were generated using CRISPR/Cas9. The guide RNAs for PfAcAS-A597V (5′-[…]-3′; 5′-[…]-3′) and for PfAcAS-T648M (5′-[…]-3′) were designed using Benchling (https://benchling.com/) to targeting sites in PfAcAS that were 6-14 bp upstream of the A597 codon and 6 bp downstream of the T648 codon respectively. Complementary oligos encoding the gRNA sequences (5′- tatt[…]-3’ / 5’-aaac[…]-3’; 5’-tatt[…]-3’ / 5’-aaac[…]-3’ and 5’- tattg[…]-3’ / 5’-aaac[…]c-3’ ) were phosphorylated using T4 polynucleotide kinase and annealed (95°C for 5 min, then step down of 5°C/min to 25°C) prior to ligation into the BbsI-digested pDC2-coCas9-U6.2-hDHFR plasmid ([Lim et al., 2016]). The donor template for PfAcAS-A597V was synthesized (ThermoFisher) as a 700 bp Genestring fragment spanning position 1468 to 2168 of the PfAcAS gene, and the donor for PfAcAS-T648M synthesized as a 829 bp fragment spanning position 1468 to 2297 and inserted into the AatII/EcoRI sites of the pDC2-coCas9-gRNA-hDHFR plasmid by Gibson assembly. Ring-stage parasites (Dd2) at 5% parasitemia were transfected by electroporation (BioRad Gene Pulser II at 0.310 kV and 950 μF) with 50 μg of each plasmid (plasmid 1: pDC2-coCas9-AcAS-A597V-gRNA1-hDHFR, plasmid 2: pDC2-coCas9-gRNA2-hDHFR, or plasmid 3: pDC2-coCas9-AcAS-T648M-gRNA1-hDHFR), and parasites selected for 10 days with 2.5 nM WR99210 (Jacobus Pharmaceuticals), followed by removal of drug pressure. After confirmation of editing in the bulk culture, clones were isolated by serial limiting dilution and confirmed by Sanger sequencing after PCR amplification from genomic DNA using forward primer 5′-[…]-3′ and reverse primer 5′-[…]-3′ (for A597V) and 5′-[…]-3′ (for T648M).

P. falciparum Dd2-B2 = test: Blood-stage dose-response assay (72 hr), Dd2 / Dd2-B2 parent; settings: Plasmodium falciparum, DD2, read-out: Dd2-B2 parent EC50 ± SD (nM)
Experimental: (§3) The 3D7-A10 clone has been used in previous in vitro drug selection and sequencing efforts ([Cowell et al., 2018]). Dd2 parasites were obtained from T. Wellems (NIAID, NIH). Dd2-B2 is a genetically homogeneous line that was cloned from Dd2 by limiting dilution in the Fidock lab. Parasite strains were cultured in 3-5% human O+ hematocrit in RPMI 1640 (Life Technologies) supplemented with 28 mM NaHCO3, 25 mM HEPES, and hypoxanthine ([…]). Depending on the parasite line, the media either contained gentamycin (25 μg/mL), or no antibiotic and was additionally supplemented with 0.5% AlbuMAX II (Life Technologies) and/or O+ human serum (heat inactivated and pooled). Blood and serum products were obtained from Interstate Blood Bank. Cultures were maintained at 37°C in 1.1% O2, 4% CO2, and 95% N2. Parasite populations were synchronized by 5% sorbitol treatment ([Lambros and Vanderberg, 1979]).
as §1

[2] = system: P. falciparum Dd2:T648M (CRISPR edited PfAcAS); test: Blood-stage dose-response assay, CRISPR-edited Dd2:T648M line; settings: Plasmodium falciparum, mean ± SD, n bioreplicates
Experimental: as §1, §2

P. falciparum 3D7-A10 = test: Blood-stage dose-response assay (SYBR Green I, 72 hr), 3D7 / 3D7-A10 parent; settings: Plasmodium falciparum, mean ± SD, n bioreplicates, read-out: 3D7-A10 parent EC50 ± SD
Experimental: as §3, §1

[3] = system: histone acetylation in P. falciparum 3D7-A10; test: Histone acetylation Western blot, wild-type 3D7-A10; settings: trophozoites, 3 h exposure
Experimental: Synchronous trophozoite-stage (24-32hr post-invasion) cultures at 3–5% parasitemia and 2% hematocrit in complete medium were exposed to test compounds for 3 hr at 37°C. […] DMSO was tested at 0.1% as the vehicle-only control. Following drug exposure, parasites were isolated via saponin lysis ice-cold 0.1% saponin in phosphate-buffered saline (PBS). Isolated parasites were washed 3x in ice-cold PBS containing protease inhibitor cocktail (cOmplete mini, Roche) and lysed in 1x Laemmli Sample Buffer (Biorad) with 5% beta-mercaptoethanol (Sigma-Aldrich). Samples were heated at 99°C for 10 min before centrifugation. Equal quantities of solute were separated on Protean TGX Precast Gels (4–20% gradient) in Tris-SDS-glycine buffer, transferred to nitrocellulose membrane by iblot (Invitrogen), and blocked for 1h in tris-buffered saline (TBS) with 5% skim milk powder. Blocked membranes were probed with antibodies recognising tetra-acetylated H4 (H4ac4, Sigma-Aldrich 06–866), H4K8ac (CST #2594), H3K9ac (CST #9649) or H3 (CST #4499), at 1:1000 dilution, and PfBiP ([Shonhai et al., 2007]) (at 1:5000 dilution) in 3% milk powder TBS with 0.1% Tween 20 at 4°C overnight and with 800CW goat α-rabbit IgG (Licor) at 1:10,000 dilution. Membranes were visualised using a Licor Odyssey CLX imaging system and quantified using ImageJ.

SMILES | EC50 [1] [nM] | EC50 (P. falciparum Dd2-B2) [nM] | EC50 [2] [nM] | EC50 (P. falciparum 3D7-A10) [nM] | acetylation of H4K8ac, H3K9ac and tetra-acetylated H4 (H4Ac4) histone markers relative to DMSO [3]
OC(c1cc(C(F)(F)F)nc2c(C(F)(F)F)cccc12)C1CCCCN1 (centres unmarked) [Mefloquine] | 31 ± 17 | 15 ± 5.7 | 20 ± 11 | 18 ± 4.6 | –
CC(/C=C/C(=O)NO)=C\[C@@H](C)C(=O)c1ccc(N(C)C)cc1 [trichostatin A] | – | – | – | – | significant increase
